The source of these data is patent publication US4814340A, “1,4-diaryl alkane derivatives having insecticidal and acaricidal activity” (priority 1982, dated 1989).

One may read the mortality as the share of the test organisms that died.

Molecules are shown by their SMILES. Counter-ions that a name gives are not always drawn.

For one data set, the system named is green rice leafhopper (female adults). Description: Test 2 (Effect on Green Rice Leafhopper). The format is in vivo. Particulars: Nephotettix cincticeps; 20 ppm; 48 hours; female adults; read-out: Mortality (%). How it is done:
(§1) Compounds (a) through (g) described below were tested as comparative compounds in the same manner as the compounds of the present invention. All the tests were doubly carried out. Namely, each result was expressed by an average value of two data.
Four or five seedlings of paddy rice with three leaves were bundled, and thereon the same dilution of the emulsifiable concentrate as used in Test 1 was sprayed in an amount of 3 ml. The bundle was dried and covered with a metal net cylinder, and 10 female adults of green rice leafhopper were set free in the cylinder. 48 hours after, the number of killed adults was counted.
Take `CC(C)(CCCc1cccc(Oc2ccccc2)c1)c1ccc(OC(F)(F)C(Cl)Cl)cc1` [Compound 25]: the mortality at 20 ppm was 90%.

For the compound `CC(C)(CCCc1cccc(Oc2ccccc2)c1)c1ccc(Cl)c(Cl)c1` [Compound 26], the mortality at 20 ppm was found to be 50%.

`CCOc1ccc(C(C)(C)CCCc2cccc(Oc3ccccc3)c2)cc1OCC` [Compound 28]: the mortality at 20 ppm worked out at 80%.

Take `CCOc1ccc(C(C)(C)CCCc2cccc(Sc3ccccc3)c2)cc1` [Compound 30]: the mortality at 20 ppm worked out at 70%.

As for `CCCOc1ccc(C(C)(C)CCCc2cccc(Oc3ccccc3)c2)cc1` [Compound 33], the mortality at 20 ppm turned out to be 100%.

On to `CCOc1ccc(C(C)(C)CCCc2cccc(C(=O)c3ccccc3)c2)cc1` [Compound 34], for which the mortality at 20 ppm was 50%.

Take `CCOc1ccc(C(C)(C)CCCc2ccc(F)c(Sc3ccccc3)c2)cc1` [Compound 36]: the mortality at 20 ppm amounted to 100%.

`CCOc1ccc(C(C)(C)CCCc2cccc(Oc3ccc(Cl)cc3)c2)cc1` [Compound 39]: the mortality at 20 ppm is 90%.

Consider `CCOc1ccc(C(C)(C)CCCc2cccc(Oc3ccccc3F)c2)cc1` [Compound 42], for which the mortality at 20 ppm worked out at 100%.

Consider `CC(C)(CCCc1cccc(Oc2ccccc2)c1)c1ccc(Br)cc1` [Compound 47], for which the mortality at 20 ppm is 75%.

Take `CC(C)C(C)(CCCc1cccc(Oc2ccccc2)c1)c1ccc(Cl)cc1` (stereo not shown) [Compound 49]: the mortality at 20 ppm turned out to be 60%.

`Clc1ccc(C2(CCCc3cccc(Oc4ccccc4)c3)CC2(Cl)Cl)cc1` (stereo not shown) [Compound 50, 1-(3-Phenoxyphenyl)-3-[1-(4-chlorophenyl)-2,2-dichlorocyclopropyl]-propane]: the mortality at 20 ppm is 50%.

For the compound `C#CC(CCC(C)(C)c1ccc(OCC)cc1)c1ccc(F)c(Oc2ccccc2)c1` (stereo not shown) [Compound 51, 1-(3-Phenoxy-4-fluorophenyl)-1-ethynyl-4-(4-ethoxyphenyl)-4-methylpentane], the mortality at 20 ppm was determined as 60%.

Regarding `CC(C)=Cc1ccc(C(C)(C)CCCc2cccc(Oc3ccccc3)c2)cc1` [Compound 59], the mortality at 20 ppm was determined as 70%.

In the case of `CC(C)(CCC(C#N)c1ccc(F)c(Oc2ccccc2)c1)c1ccc(Cl)cc1` (stereo not shown) [Compound 62, 1-(3-Phenoxy-4-fluorophenyl)-1-cyano-4-(4-chlorophenyl)-4-methylpentane], the mortality at 20 ppm is 45%.

In the case of `CC(C)(CCCc1cccc(Oc2ccccc2)c1)c1ccc(C(=O)OCCF)cc1` [Compound 68], the mortality at 20 ppm worked out at 40%.

Take `CC(C)(CCCc1cccc(Oc2ccccc2)c1)c1ccc(C(=O)OC(F)(F)C(F)F)cc1` [Compound 69]: the mortality at 20 ppm worked out at 75%.

Staying with this data set, now noted: Nephotettix cincticeps; 100 ppm; 48 hours; female adults; read-out: Mortality (%).
For `CC(C)(CCCc1cccc(Oc2ccccc2)c1)c1ccc(OC(F)(F)C(Cl)Cl)cc1` [Compound 25], the mortality at 100 ppm worked out at 100%.

As to `CC(C)(CCCc1cccc(Oc2ccccc2)c1)c1ccc(Cl)c(Cl)c1` [Compound 26], the mortality at 100 ppm came out at 100%.

Consider `CCOc1ccc(C(C)(C)CCCc2cccc(Oc3ccccc3)c2)cc1OCC` [Compound 28], for which the mortality at 100 ppm turned out to be 100%.

`CCOc1ccc(C(C)(C)CCCc2cccc(Sc3ccccc3)c2)cc1` [Compound 30]: the mortality at 100 ppm turned out to be 100%.

Consider `CCCOc1ccc(C(C)(C)CCCc2cccc(Oc3ccccc3)c2)cc1` [Compound 33], for which the mortality at 100 ppm was determined as 100%.

In the case of `CCOc1ccc(C(C)(C)CCCc2cccc(C(=O)c3ccccc3)c2)cc1` [Compound 34], the mortality at 100 ppm was determined as 100%.

As for `CCOc1ccc(C(C)(C)CCCc2ccc(F)c(Sc3ccccc3)c2)cc1` [Compound 36], the mortality at 100 ppm came out at 100%.

Consider `CCOc1ccc(C(C)(C)CCCc2cccc(Oc3ccc(Cl)cc3)c2)cc1` [Compound 39], for which the mortality at 100 ppm worked out at 100%.

Consider `CCOc1ccc(C(C)(C)CCCc2cccc(Oc3ccccc3F)c2)cc1` [Compound 42], for which the mortality at 100 ppm is 100%.

For `CC(C)(CCCc1cccc(Oc2ccccc2)c1)c1ccc(Br)cc1` [Compound 47], the mortality at 100 ppm is 100%.

On to `CC(C)C(C)(CCCc1cccc(Oc2ccccc2)c1)c1ccc(Cl)cc1` (stereo not shown) [Compound 49], for which the mortality at 100 ppm is 100%.

As for `Clc1ccc(C2(CCCc3cccc(Oc4ccccc4)c3)CC2(Cl)Cl)cc1` (stereo not shown) [Compound 50, 1-(3-Phenoxyphenyl)-3-[1-(4-chlorophenyl)-2,2-dichlorocyclopropyl]-propane], the mortality at 100 ppm amounted to 100%.

Consider `C#CC(CCC(C)(C)c1ccc(OCC)cc1)c1ccc(F)c(Oc2ccccc2)c1` (stereo not shown) [Compound 51, 1-(3-Phenoxy-4-fluorophenyl)-1-ethynyl-4-(4-ethoxyphenyl)-4-methylpentane], for which the mortality at 100 ppm was determined as 90%.

In the case of `CC(C)=Cc1ccc(C(C)(C)CCCc2cccc(Oc3ccccc3)c2)cc1` [Compound 59], the mortality at 100 ppm stood at 100%.

For the compound `CC(C)(CCC(C#N)c1ccc(F)c(Oc2ccccc2)c1)c1ccc(Cl)cc1` (stereo not shown) [Compound 62, 1-(3-Phenoxy-4-fluorophenyl)-1-cyano-4-(4-chlorophenyl)-4-methylpentane], the mortality at 100 ppm was 100%.

With `CC(C)(CCCc1cccc(Oc2ccccc2)c1)c1ccc(C(=O)OCCF)cc1` [Compound 68], the mortality at 100 ppm is 80%.

In the case of `CC(C)(CCCc1cccc(Oc2ccccc2)c1)c1ccc(C(=O)OC(F)(F)C(F)F)cc1` [Compound 69], the mortality at 100 ppm came out at 100%.

The next data set relates to yearling carps. Kind of data set: Test 5 (Fish Toxicity). The format is in vivo, carp. Particulars: 0.1 ppm in water. How it is done:
as §1
A water tank having a width of 60 cm, a length of 30 cm and a height of 40 cm was filled with water, and 10 yearling carps having a body length of about 5 cm were set free in the tank and adapted to the environment in the tank. An acetone solution of a test compound was applied into water so as to become a concentration of 1 or 0.1 ppm in water by adding said acetone solution at a rate of one part by volume per 100 parts by volume of water. 48 hours after, the number of killed and living carps was counted and the effect of a test compound on carps was examined.
As to `Oc1c(Cl)c(Cl)c(Cl)c(Cl)c1Cl` [(f), PCP sodium salt, reference compound], the “Mortality(%) 48 Hours After” value was 55%.

For the compound `CC(C)(CCCc1cccc(Oc2ccccc2)c1)c1ccc(Cl)c(Cl)c1` [Compound 26], the “Mortality(%) 48 Hours After” value is 0%.

In the case of `CCCOc1ccc(C(C)(C)CCCc2cccc(Oc3ccccc3)c2)cc1` [Compound 33], the “Mortality(%) 48 Hours After” value stood at 0%.

Still in this data set, the particulars now being: 1 ppm in water.
In the case of `Oc1c(Cl)c(Cl)c(Cl)c(Cl)c1Cl` [(f), PCP sodium salt, reference compound], the “Mortality(%) 48 Hours After” value stood at 100%.

For the compound `CC(C)(CCCc1cccc(Oc2ccccc2)c1)c1ccc(Cl)c(Cl)c1` [Compound 26], the “Mortality(%) 48 Hours After” value was found to be 0%.

For the compound `CCCOc1ccc(C(C)(C)CCCc2cccc(Oc3ccccc3)c2)cc1` [Compound 33], the “Mortality(%) 48 Hours After” value was determined as 0%.
